With O=C(c1ccccc1)c1ccc(N2CCC(N3C(=O)OCc4ccccc43)CC2)c([N+](=O)[O-])c1 as the compound, how does the melting point read?
The melting point was 272 to 273 °C.

With CC(C)[C@@H](NC(=O)c1cnc(N2CCC(N3C(=O)OCc4ccccc43)CC2)c(Cl)c1)C(N)=O as the compound, how does the melting point read?
Its melting point is 140 to 143 °C.

For N#CC(NC(=O)c1cnc(N2CCC(N3C(=O)OCc4ccccc43)CC2)c(Cl)c1)C(N)=O (centres unmarked), which melting point is on record?
Its melting point is 159 to 162 °C.

For CC(C)NC(=O)c1ccc(N2CCC(N3C(=O)OCc4ccccc43)CC2)c(C#N)c1, which melting point is on record?
Its melting point is 200 °C.

For COC(=O)c1ccccc1C(=O)c1ccc(N2CCC(N3C(=O)OCc4ccccc43)CC2)c([N+](=O)[O-])c1, which melting point is on record?
Its melting point is 177 to 179 °C.

With O=C(O)c1ccccc1C(=O)c1ccc(N2CCC(N3C(=O)OCc4ccccc43)CC2)c([N+](=O)[O-])c1 as the compound, how does the melting point read?
The melting point was 243 to 244 °C.

For NC(=O)c1ccccc1C(=O)c1ccc(N2CCC(N3C(=O)OCc4ccccc43)CC2)c([N+](=O)[O-])c1, which melting point is on record?
Its melting point is 180 to 182 °C.

Which melting point does the source give for CC(C)NC(=O)c1csc(N2CCC(N3C(=O)OCc4ccccc43)CC2)n1 here?
Its melting point is 214 to 215 °C.

Which melting point does the source give for O=C(O)c1ccccc1C(=O)c1ccc(N2CCC(N3C(=O)CCc4ccccc43)CC2)c([N+](=O)[O-])c1 here?
Its melting point is 201 to 203 °C.

With CC(C)NC(=O)c1cnc(N2CCC(N3C(=O)OCc4ccccc43)CC2)nc1C(F)(F)F as the compound, how does the melting point read?
The melting point was 217 to 219 °C.

With CC(C)NC(=O)c1ccc(N2CCC(N3C(=O)OCc4ccccc43)CC2)c([N+](=O)[O-])c1 as the compound, how does the melting point read?
The melting point was 193 to 195 °C.

Which melting point does the source give for COC(=O)c1ccccc1C(=O)c1ccc(N2CCC(N3C(=O)OCc4ccc(Cl)cc43)CC2)c([N+](=O)[O-])c1 here?
Its melting point is 90 to 92 °C.

Which melting point does the source give for CC(C)NC(=O)c1cnc(N2CCC(N3C(=O)OCc4ccccc43)CC2)nc1 here?
Its melting point is 236 to 239 °C.

With CC(C)NC(=O)c1ccc(N2CCC(N3C(=O)OCc4ccccc43)CC2)nn1 as the compound, how does the melting point read?
Its melting point is 120 °C.

With Nc1ccc(N2CCC(N3C(=O)OCc4ccccc43)CC2)c(Cl)c1 as the compound, how does the melting point read?
Its melting point is 158 °C.

With CC(C)C[C@H](NC(=O)c1cnc(N2CCC(N3C(=O)OCc4ccccc43)CC2)c(Cl)c1)C(N)=O as the compound, how does the melting point read?
The melting point was 139 to 142 °C.

For CC(C)C[C@@H](NC(=O)c1cnc(N2CCC(N3C(=O)OCc4ccccc43)CC2)c(Cl)c1)C(N)=O, which melting point is on record?
The melting point was 139 to 142 °C.

Which melting point does the source give for CC(C)NC(=O)c1cnc(N2CCC(N3C(=O)COc4ccccc43)CC2)c(Cl)c1 here?
Its melting point is 85 to 88 °C.

For CC(C)NC(=O)c1cnc(N2CCC(n3c(=O)oc4ccccc43)CC2)c(Cl)c1 [Example 166, 5-Chloro-N-(1-methylethyl)-6-[4-(2-oxo-1,3-benzoxazol-3(2H)-yl)piperidin-1-yl]pyridine-3-carboxantide], which melting point is on record?
The melting point was 162 to 168 °C.

With CC(C)NS(=O)(=O)c1ccc(N2CCC(N3C(=O)OCc4ccccc43)CC2)c([N+](=O)[O-])c1 as the compound, how does the melting point read?
The melting point was 168 °C.

Which melting point does the source give for CC(CO)NC(=O)c1cnc(N2CCC(N3C(=O)OCc4ccccc43)CC2)c(Cl)c1 (centres unmarked) here?
Its melting point is 125 to 128 °C.

With CC(C)NC(=O)c1ccc(N2CCC(N3C(=O)OCc4ccccc43)CC2)c(S(C)(=O)=O)c1 as the compound, how does the melting point read?
The melting point was 240 to 242 °C.

Which melting point does the source give for CC(C)NC(=O)c1cnc(N2CC[C@H](N3C(=O)OCc4ccccc43)[C@@H](C)C2)c(Cl)c1.Cl here?
The melting point was 195 °C.

For C#CC(C)(C)NC(=O)c1cnc(N2CCC(N3C(=O)OCc4ccccc43)CC2)c(Cl)c1, which melting point is on record?
Its melting point is 135 to 138 °C.

Which melting point does the source give for CC(C)S(=O)(=O)Nc1ccc(N2CCC(N3C(=O)OCc4ccccc43)CC2)c(Cl)c1 here?
Its melting point is 175 °C.

For COCCNC(=O)c1ccc(N2CCC(N3C(=O)OCc4ccccc43)CC2)c([N+](=O)[O-])c1, which melting point is on record?
Its melting point is 192 to 193 °C.

For CC(C)C(=O)Nc1ccc(N2CCC(N3C(=O)OCc4ccccc43)CC2)c(Cl)c1, which melting point is on record?
Its melting point is 228 °C.

For O=C1OCc2ccccc2N1C1CCN(c2ccc(NCc3ncc[nH]3)cc2Cl)CC1, which melting point is on record?
The melting point was 222 to 224 °C.

With CN1CCC[C@H]1C(=O)Nc1ccc(N2CCC(N3C(=O)OCc4ccccc43)CC2)c(Cl)c1 as the compound, how does the melting point read?
Its melting point is 155 °C.

— US6812226B2, “P2X7 receptor antagonists for use in the treatment of inflammatory, immune or cardiovascular disease” (AstraZeneca AB, priority 1999, dated 2004)
